# Laboratory results reported in patent US20080233127A1, “IMIDAZOLOPYRIMIDINE ANALOGS AND THEIR USE AS PI3 KINASE AND MTOR INHIBITORS” (Wyeth, priority 2007, published 2008).
# Legend:
# [1] = target: PI3 Kinase; test: PI3K fluorescence polarization assay; type: biochemical; conditions: 25 μM ATP, diC8-PI(4,5)P2 substrate, 1 hour at 25° C.; read-out: PI3 Kinase Median IC50
# [2] = target: T1, human TOR (Homo sapiens, UniProt P42345); test: mTOR enzyme assay (DELFIA format, purified FLAG-TOR, His6-S6K substrate); type: biochemical; conditions: 100 μM ATP, 1.25 μM His6-S6K, 2 hours at room temperature; read-out: TOR Kinase Median IC50
# T1 construct: FLAG
Structure (SMILES),IC50 [1],IC50 [2]
"CN(C)c1ccc(CN2CCC(n3cnc4c(N5CCOCC5)nc(-c5cccc(O)c5)nc43)CC2)c2ccccc12 [Compound 83, 3-[9-(1-{[4-(dimethylamino)-1-naphthyl]methyl}piperidin-4-yl)-6-morpholin-4-yl-9H-purin-2-yl]phenol]",83 nM,360 nM
"Oc1cncc(-c2nc(N3CCOCC3)c3ncn(C4CCN(Cc5ccc(F)nc5)CC4)c3n2)c1 [Compound 88, 5-(9-{1-[(6-fluoropyridin-3-yl)methyl]piperidin-4-yl}-6-morpholin-4-yl-9H-purin-2-yl)pyridin-3-ol]",85 nM,500 nM
"COc1cncc(-c2nc(N3CCOCC3)c3nc[nH]c3n2)c1 [Compound 42, 2-(5-methoxypyridin-3-yl)-6-morpholin-4-yl-9H-purine]",598 nM,3000 nM
"OCc1cccc(-c2nc(N3CCOCC3)c3ncn(C4CCN(Cc5ccc(F)cc5F)CC4)c3n2)c1 [Compound 49, (3-{9-[1-(2,4-difluorobenzyl)piperidin-4-yl]-6-morpholin-4-yl-9H-purin-2-yl}phenyl)methanol]",44 nM,2050 nM
"C=CC(=O)n1cnc2c(N3CCOCC3)nc(-c3cccc(O)c3)nc21 [Compound 91, 1-(2-(3-hydroxyphenyl)-6-morpholino-9H-purin-9-yl)prop-2-en-1-one]",43 nM,73 nM
"Oc1cccc(-c2nc(N3CCOCC3)c3ncn(CC4CCN(Cc5ccccc5)CC4)c3n2)c1 [Compound 27, 3-(9-((1-benzylpiperidin-4-yl)methyl)-6-morpholino-9H-purin-2-yl)phenol]",193 nM,600 nM
"CNC(=O)Nc1ccc(-c2nc(N3CCOCC3)c3ncn(C4CCN(Cc5cccnc5)CC4)c3n2)cc1 [Compound 89, 1-methyl-3-(4-(6-morpholino-9-(1-(pyridin-3-ylmethyl)piperidin-4-yl)-9H-purin-2-yl)phenyl)urea]",340 nM,9.7 nM
"OCc1cccc(-c2nc(N3CCOCC3)c3ncn(C4CCN(Cc5ncc[nH]5)CC4)c3n2)c1 [Compound 70, (3-{9-[1-(1H-imidazol-2-ylmethyl)piperidin-4-yl]-6-morpholin-4-yl-9H-purin-2-yl}phenyl)methanol]",152 nM,1500 nM
"CC(=O)N1CCC(n2cnc3c(N4CCOCC4)nc(-c4cccc(CO)c4)nc32)CC1 [Compound 26, 1-(4-(2-(3-(hydroxymethyl)phenyl)-6-morpholino-9H-purin-9-yl)piperidin-1-yl)ethanone]",189 nM,2100 nM
"Cc1ccc(CN2CCC(n3cnc4c(N5CCOCC5)nc(-c5cncc(O)c5)nc43)CC2)s1 [Compound 37, 5-(9-{1-[(5-methyl-2-thienyl)methyl]piperidin-4-yl}-6-morpholin-4-yl-9H-purin-2-yl)pyridin-3-ol]",26 nM,140 nM
"OCc1cccc(-c2nc(N3CCOCC3)c3ncn(CC4CCN(Cc5ccccc5)CC4)c3n2)c1 [Compound 29, (3-(9-((1-benzylpiperidin-4-yl)methyl)-6-morpholino-9H-purin-2-yl)phenyl)methanol]",243 nM,10500 nM
"OCc1cccc(-c2nc(N3CCOCC3)c3ncn(C4CCN(Cc5cccc(F)c5)CC4)c3n2)c1 [Compound 50, (3-{9-[1-(3-fluorobenzyl)piperidin-4-yl]-6-morpholin-4-yl-9H-purin-2-yl}phenyl)methanol]",94 nM,1400 nM
"Oc1cccc(-c2nc(N3CCOCC3)c3ncn(C4CCN(Cc5ccccn5)CC4)c3n2)c1 [Compound 77, 3-{6-morpholin-4-yl-9-[1-(pyridin-2-ylmethyl)piperidin-4-yl]-9H-purin-2-yl}phenol]",156 nM,290 nM
"OCc1cccc(-c2nc(N3CCOCC3)c3ncn(C4CCN(Cc5c[nH]c6ccc(F)cc56)CC4)c3n2)c1 [Compound 73, [3-(9-{1-[(5-fluoro-1H-indol-3-yl)methyl]piperidin-4-yl}-6-morpholin-4-yl-9H-purin-2-yl)phenyl]methanol]",30 nM,1300 nM
"OCc1cccc(-c2nc(N3CCOCC3)c3ncn(C4CCN(Cc5cccc(Br)n5)CC4)c3n2)c1 [Compound 71, [3-(9-{1-[(6-bromopyridin-2-yl)methyl]piperidin-4-yl}-6-morpholin-4-yl-9H-purin-2-yl)phenyl]methanol]",50 nM,580 nM
"OCc1cccc(-c2nc(N3CCOCC3)c3ncn(C4CCN(Cc5ccc[nH]5)CC4)c3n2)c1 [Compound 68, (3-{6-morpholin-4-yl-9-[1-(1H-pyrrol-2-ylmethyl)piperidin-4-yl]-9H-purin-2-yl}phenyl)methanol]",37 nM,2500 nM
"Oc1cccc(-c2nc(N3CCOCC3)c3ncn(C4CCN(Cc5ccc(Cl)nc5)CC4)c3n2)c1 [Compound 78, 3-(9-{1-[(6-chloropyridin-3-yl)methyl]piperidin-4-yl}-6-morpholin-4-yl-9H-purin-2-yl)phenol]",37 nM,200 nM
"Oc1cccc(-c2nc(N3CCOCC3)c3ncn(CCN4CCCCC4)c3n2)c1 [Compound 85, 3-[6-morpholin-4-yl-9-(2-piperidin-1-ylethyl)-9H-purin-2-yl]phenol]",163 nM,9800 nM
"OCc1cccc(-c2nc(N3CCOCC3)c3ncn(C4CCNCC4)c3n2)c1 [Compound 25, [3-(6-Morpholin-4-yl-9-piperidin-4-yl-9H-purin-2-yl)-phenyl]-methanol]",57 nM,7200 nM

# The remaining molecules from weak to strong by IC50 [1], led by results:
IC50 [1],IC50 [2],Structure (SMILES)
3750 nM,4500 nM,"OCc1ccc(-c2nc(N3CCOCC3)c3nc[nH]c3n2)cc1 [Compound 5, [4-(6-morpholin-4-yl-9H-purin-2-yl)phenyl]methanol]"
2750 nM,180 nM,"c1cc2cc(-c3nc(N4CCOCC4)c4nc[nH]c4n3)ccc2[nH]1 [Compound 6, 2-(1H-indol-5-yl)-6-morpholin-4-yl-9H-purine]"
518 nM,> 4000 nM,"Cc1ccc(CN2CCC(n3cnc4c(N5CCOCC5)nc(-c5cccc(CO)c5)nc43)CC2)s1 [Compound 67, [3-(9-{1-[(5-methyl-2-thienyl)methyl]piperidin-4-yl}-6-morpholin-4-yl-9H-purin-2-yl)phenyl]methanol]"
288 nM,270 nM,"CC(C)(C)OC(=O)N1CCC(n2cnc3c(N4CCOCC4)nc(-c4cccc(O)c4)nc32)CC1 [Compound 57, tert-butyl 4-{2-(3-hydroxyphenyl)-6-morpholino-9H-purin-9-yl}piperidine-1-carboxylate]"
177 nM,> 4000 nM,"OCc1cccc(-c2nc(N3CCOCC3)c3ncn(C4CCN(Cc5cncc(F)c5)CC4)c3n2)c1 [Compound 66, [3-(9-{1-[(5-fluoropyridin-3-yl)methyl]piperidin-4-yl}-6-morpholin-4-yl-9H-purin-2-yl)phenyl]methanol]"
99 nM,1800 nM,"OCc1cccc(-c2nc(N3CCOCC3)c3ncn(C4CCN(Cc5cccc(N6CCOCC6)n5)CC4)c3n2)c1 [Compound 72, [3-(6-morpholin-4-yl-9-{1-[(6-morpholin-4-ylpyridin-2-yl)methyl]piperidin-4-yl}-9H-purin-2-yl)phenyl]methanol]"
96 nM,4200 nM,CCCCN1CCC(n2cnc3c(N4CCOCC4)nc(-c4cccc(CO)c4)nc32)CC1 [Compound 48]
95 nM,1400 nM,"CC(C)(C)OC(=O)N1CCC(n2cnc3c(N4CCOCC4)nc(-c4cccc(CO)c4)nc32)CC1 [Compound 59, tert-butyl 4-{2-[3-(hydroxymethyl)phenyl]-6-morpholin-4-yl-9H-purin-9-yl}piperidine-1-carboxylate]"
94 nM,2000 nM,"OCc1cccc(-c2nc(N3CCOCC3)c3ncn(C4CCN(Cc5cnc6n5CCOC6)CC4)c3n2)c1 [Compound 74, (3-{9-[1-(5,6-dihydro-8H-imidazo[2,1-c][1,4]oxazin-3-ylmethyl)piperidin-4-yl]-6-morpholin-4-yl-9H-purin-2-yl}phenyl)methanol]"
94 nM,570 nM,"Oc1cncc(-c2nc(N3CCOCC3)c3ncn(C4CCN(Cc5ccc(F)nc5)CC4)c3n2)c1 [Compound 41, 5-{9-[1-(6-fluoro-pyridin-3-ylmethyl)-piperidin-4-yl]-6-morpholin-4-yl-9H-purin-2-yl}-pyridin-3-ol]"
91 nM,13000 nM,"OCc1cccc(-c2nc(N3CCOCC3)c3ncn(CCN4CCCCC4)c3n2)c1 [Compound 86, {3-[6-morpholin-4-yl-9-(2-piperidin-1-ylethyl)-9H-purin-2-yl]phenyl}methanol]"
77 nM,170 nM,"O=Cc1cncc(-c2nc(N3CCOCC3)c3ncn(C4CCN(Cc5ccccc5)CC4)c3n2)c1 [Compound 34, 5-[9-(1-benzylpiperidin-4-yl)-6-morpholin-4-yl-9H-purin-2-yl]nicotinaldehyde]"
70 nM,310 nM,"Oc1cccc(-c2nc(N3CCOCC3)c3ncn(C4CCN(Cc5ccc(F)nc5)CC4)c3n2)c1 [Compound 84, 3-(9-{1-[(6-fluoropyridin-3-yl)methyl]piperidin-4-yl}-6-morpholin-4-yl-9H-purin-2-yl)phenol]"
63 nM,1000 nM,"OCc1cncc(-c2nc(N3CCOCC3)c3ncn(C4CCN(Cc5ccccc5)CC4)c3n2)c1 [Compound 35, {5-[9-(1-benzylpiperidin-4-yl)-6-morpholin-4-yl-9H-purin-2-yl]pyridin-3-yl}methanol]"
55 nM,51 nM,"COc1ccc(CN2CCC(n3cnc4c(N5CCOCC5)nc(-c5cccc(O)c5)nc43)CC2)cn1 [Compound 79, 3-(9-{1-[(6-methoxypyridin-3-yl)methyl]piperidin-4-yl}-6-morpholin-4-yl-9H-purin-2-yl)phenol]"
16 nM,> 4000 nM,CN(C)CCCOc1ccc(CN2CCC(n3cnc4c(N5CCOCC5)nc(-c5cccc(CO)c5)nc43)CC2)cc1 [Compound 75]
